Read-outs that look alike come from different tables or passages of the source.
What was measured:
Format in all cases: cell-based
[1] = test system: RSV A2 strain; test: RSV A2-induced CPE in Hep2 cells; settings: human respiratory syncytial virus; for IC50: HEp-2, 120 h, read-out: RSV A2 CPE IC50; for inhibition at 0.01 µg/mL: at 0.01 μg/mL (footnote 2)
Procedure: (§1) Biological Testing: Experimental Methods Assessment of RSV Induced CPE in Hep2 Cells
(§2) Hep2 cells were seeded (10^3/well/50 μL) in 384-well plates (Catalogue number 353962, BD Falcon, Oxford, UK) in 5% serum free-DMEM containing 2 mM L-glutamine and 1 mM sodium pyruvate one day before infection. RSV A2 strain (#0709161v, NCPV, Public Health England, Wiltshire) or RSV B Washington strain (VR-1580, ATCC, Manassas, Va. 20108) virus solutions were prepared in serum free-DMEM with 2 mM L-glutamine and 1 mM sodium pyruvate, and then added (50 μL/well) to achieve a final virus concentration of 1 MOI for RSV A and 0.1MOI for RSV B. Simultaneously test compounds (0.5 μL DMSO solution) were added to 100 μL of Hep2 cell culture with virus solution to provide a final DMSO solution of 0.5%. Plates were incubated (37° C./5% CO2) for 5 days for studies using RSV A2 strain or 6 days for those using RSV B strain, and then resazurin sodium salt (5 μL of 0.03% solution; Sigma-Aldrich, Dorset, UK) was added to each well and the plate incubated for a further 6 hr (37° C. and 5% CO2). The fluorescence of each well [545 nm (excitation)/590 nm (emission)] was determined using a multi-scanner (Clariostar: BMG, Buckinghamshire, UK). The percentage inhibition for each well was calculated and the IC50, IC75 and IC90 values were calculated from the concentration-response curve generated for each test compound.

[2] = test system: RSV B Washington strain; test: RSV B-induced CPE in Hep2 cells; settings: human respiratory syncytial virus; for IC50: HEp-2, 144 h, read-out: RSV B CPE IC50
Procedure: as §1, §2

[3] = Cell viability: resazurin assay in Hep2 cells; settings: human, 5 days incubation
Procedure: Cell Viability: Resazurin Assay Hep2 cells were seeded in 384-well plates (10^3/well/50 μL; BD Falcon Ref 353962) in FBS DMEM (5%, containing 2 mM L-glutamine and 1 mM sodium pyruvate) one day before experimentation. Serum-free DMEM (50 μL) was added to test wells while for control wells the media was removed and sterile water (100 μL) was added. Test compounds (0.5 μL DMSO solution) were added to give a final DMSO concentration of 0.5%. Hep2 cells were incubated with each test compound for 5 days (37° C./5% CO2 in 5% FBS) and then resazurin stock solution (5 μL; 0.03%) was added to each well and the plate incubated further for a further 6 hrs (37° C./5% CO2). The fluorescence of each well at 545 nm (excitation) and 590 nm (emission) was determined using a multi-scanner (Clariostar: BMG Labtech). The percentage loss of cell viability was calculated for each well relative to vehicle (0.5% DMSO) treatment. Where appropriate, a CC50 value was calculated from the concentration-response curve generated from the concentration-response curve for each test compound.

[4] = Hep2 cells, RSV A2 1 MOI, 5 days, resazurin
[5] = HEp-2, Hep2 cells, at 0.1 μg/mL, read-out: RSV A2 CPE % Inhibition
[6] = Hep2 cells, RSV B Washington 0.1 MOI, 6 days, resazurin
[7] = HEp-2, Hep2 cells, at 1 μg/mL, read-out: RSV B CPE % Inhibition
[8] = HEp-2, Hep2 cells, read-out: RSV A2 CPE % Inhibition

Row | Compound | IC50 [1, 4] [nM] | IC50 [2, 6] [nM] | IC50 [1] [nM] | inhibition at 0.1 µg/mL ([1]; HEp-2, read-out: RSV A2 CPE % Inhibition) [%] | IC50 [2] [nM] | inhibition at 1 µg/mL ([2]; HEp-2, read-out: RSV B CPE % Inhibition) [%] | CC50 at 5 days [3] [nM] | inhibition at 0.1 µg/mL [1, 5] [%] | inhibition at 1 µg/mL [2, 7] [%] | inhibition at 0.01 µg/mL [1, 8] [%]
1 | Cc1cccc2nc(-c3cc4c(s3)-c3ccccc3N(C(=O)c3ccc(NC(=O)c5cccnc5N5CC6(CCOCC6)C5)cc3)CC4)[nH]c12 [Example 1, N-(4-(2-(7-Methyl-1H-benzo[d]imidazol-2-yl)-5,6-dihydro-4H-benzo[b]thieno[2,3-d]azepine-6-carbonyl)phenyl)-2-(7-oxa-2-azaspiro[3.5]nonan-2-yl)nicotinamide] | – | – | 0.21 | 100 | 84.7 | 100 | > 14700 | – | – | –
2 | Cc1cc(C(=O)Nc2ccc(C(=O)N3CCc4cc(-c5nc6cccc(C#N)c6[nH]5)sc4-c4ccccc43)cc2)c(N2CC3(CCOCC3)C2)nc1C [Example 25, N-(4-(2-(7-cyano-1H-benzo[d]imidazol-2-yl)-5,6-dihydro-4H-benzo[b]thieno[2,3-d]azepine-6-carbonyl)phenyl)-5,6-dimethyl-2-(7-oxa-2-azaspiro[3.5]nonan-2-yl)nicotinamide] | 0.69 | 15.8 | – | – | – | – | > 13900 | – | 100 | 100
3 | Cc1ccc(C(=O)Nc2ccc(C(=O)N3CCc4cc(-c5nc6cccc(F)c6[nH]5)sc4-c4ccccc43)cc2)c(N2CC3(CCOCC3)C2)n1 [Example 20, N-(4-(2-(7-fluoro-1H-benzo[d]imidazol-2-yl)-5,6-dihydro-4H-benzo[b]thieno[2,3-d]azepine-6-carbonyl)phenyl)-6-methyl-2-(7-oxa-2-azaspiro[3.5]nonan-2-yl)nicotinamide] | 0.094 | 7.6 | – | – | – | – | > 14300 | 100 | 100 | –
4 | Cc1cnc(N2CC3(CCOCC3)C2)c(C(=O)Nc2ccc(C(=O)N3CCc4cc(-c5nc6ccccc6[nH]5)sc4-c4ccccc43)c(F)c2)c1 [Example 26, N-(4-(2-(1H-benzo[d]imidazol-2-yl)-5,6-dihydro-4H-benzo[b]thieno[2,3-d]azepine-6-carbonyl)-3-fluorophenyl)-5-methyl-2-(7-oxa-2-azaspiro[3.5]nonan-2-yl)nicotinamide] | 0.27 | 12 | – | – | – | – | > 14300 | – | 100 | 100
5 | Cc1cc(C(=O)Nc2ccc(C(=O)N3CCc4cc(-c5nc6cccc(F)c6[nH]5)sc4-c4ccccc43)cc2)c(N2CC3(CCOCC3)C2)nc1C [Example 22, N-(4-(2-(7-fluoro-1H-benzo[d]imidazol-2-yl)-5,6-dihydro-4H-benzo[b]thieno[2,3-d]azepine-6-carbonyl)phenyl)-5,6-dimethyl-2-(7-oxa-2-azaspiro[3.5]nonan-2-yl)nicotinamide] | 1.6 | 14 | – | – | – | – | > 14000 | – | 100 | 90
6 | Cc1cc(C(=O)Nc2ccc(C(=O)N3CCc4cc(-c5nc6cccc(Cl)c6[nH]5)sc4-c4ccccc43)cc2)c(N2CC3(CCOCC3)C2)nc1C [Example 23, N-(4-(2-(7-chloro-1H-benzo[d]imidazol-2-yl)-5,6-dihydro-4H-benzo[b]thieno[2,3-d]azepine-6-carbonyl)phenyl)-5,6-dimethyl-2-(7-oxa-2-azaspiro[3.5]nonan-2-yl)nicotinamide] | 0.75 | 103 | – | – | – | – | > 13700 | 100 | 100 | –

Further molecules by falling IC50 [1, 4], results first:

Row | IC50 [1, 4] [nM] | IC50 [2, 6] [nM] | Compound | IC50 [1] [nM] | inhibition at 0.1 µg/mL ([1]; HEp-2, read-out: RSV A2 CPE % Inhibition) [%] | IC50 [2] [nM] | inhibition at 1 µg/mL ([2]; HEp-2, read-out: RSV B CPE % Inhibition) [%] | CC50 at 5 days [3] [nM] | inhibition at 0.1 µg/mL [1, 5] [%] | inhibition at 1 µg/mL [2, 7] [%] | inhibition at 0.01 µg/mL [1, 8] [%]
7 | 0.96 | 6.3 | Cc1cnc(N2CC3(CCOCC3)C2)c(C(=O)Nc2ccc(C(=O)N3CCc4cc(-c5nc6cc(F)cc(F)c6[nH]5)sc4-c4ccccc43)cc2)c1 [Example 19, N-(4-(2-(5,7-difluoro-1H-benzo[d]imidazol-2-yl)-5,6-dihydro-4H-benzo[b]thieno[2,3-d]azepine-6-carbonyl)phenyl)-5-methyl-2-(7-oxa-2-azaspiro[3.5]nonan-2-yl)nicotinamide] | – | – | – | – | > 14000 | – | 100 | 88
8 | 0.67 | 44.1 | O=C(Nc1ccc(C(=O)N2CCc3cc(-c4nc5cccc(Cl)c5[nH]4)sc3-c3ccccc32)cc1)c1cccnc1N1CC2(CCOCC2)C1 [Example 9, N-(4-(2-(7-chloro-1H-benzo[d]imidazol-2-yl)-5,6-dihydro-4H-benzo[b]thieno[2,3-d]azepine-6-carbonyl)phenyl)-2-(7-oxa-2-azaspiro[3.5]nonan-2-yl)nicotinamide] | – | – | – | – | > 14300 | 100 | 100 | –
9 | 0.66 | 13.3 | CCc1cnc(N2CC3(CCOCC3)C2)c(C(=O)Nc2ccc(C(=O)N3CCc4cc(-c5nc6ccccc6[nH]5)sc4-c4ccccc43)cc2)c1 [Example 4, N-(4-(2-(1H-Benzo[d]imidazol-2-yl)-5,6-dihydro-4H-benzo[b]thieno[2,3-d]azepine-6-carbonyl)phenyl)-5-ethyl-2-(7-oxa-2-azaspiro[3,5]nonan-2-yl)nicotinamide] | – | – | – | – | > 14400 | – | 100 | 86
10 | 0.21 | 45.2 | COc1ccc(C(=O)Nc2ccc(C(=O)N3CCc4cc(-c5nc6ccccc6[nH]5)sc4-c4ccccc43)cc2)c(N2CC3(CCOCC3)C2)n1 [Example 21, N-(4-(2-(1H-benzo[d]imidazol-2-yl)-5,6-dihydro-4H-benzo[b]thieno[2,3-d]azepine-6-carbonyl)phenyl)-6-methoxy-2-(7-oxa-2-azaspiro[3.5]nonan-2-yl)nicotinamide] | – | – | – | – | > 14400 | 100 | 100 | –
11 | 0.17 | 83.3 | Cc1cnc(N2CC3(CCOCC3)C2)c(C(=O)Nc2ccc(C(=O)N3CCc4cc(-c5nc6cccc(Cl)c6[nH]5)sc4-c4ccccc43)cc2)c1 [Example 15, N-(4-(2-(7-chloro-1H-benzo[d]imidazol-2-yl)-5,6-dihydro-4H-benzo[b]thieno[2,3-d]azepine-6-carbonyl)phenyl)-5-methyl-2-(7-oxa-2-azaspiro[3.5]nonan-2-yl)nicotinamide] | – | – | – | – | > 14000 | 85 | 100 | –
12 | 0.14 | 62 | O=C(Nc1ccc(C(=O)N2CCc3cc(-c4nc5cccc(C(F)(F)F)c5[nH]4)sc3-c3ccccc32)cc1)c1cccnc1N1CC2(CCOCC2)C1 [Example 10, 2-(7-oxa-2-azaspiro[3.5]nonan-2-yl)-N-(4-(2-(7-(trifluoromethyl)-1H-benzo[d]imidazol-2-yl)-5,6-dihydro-4H-benzo[b]thieno[2,3-d]azepine-6-carbonyl)phenyl)nicotinamide] | – | – | – | – | > 13600 | 100 | 100 | –
13 | 0.11 | 13.2 | Cc1cnc(N2CC3(CCOCC3)C2)c(C(=O)Nc2ccc(C(=O)N3CCc4cc(-c5nc6cccc(C(F)(F)F)c6[nH]5)sc4-c4ccccc43)cc2)c1 [Example 17, 5-methyl-2-(7-oxa-2-azaspiro[3.5]nonan-2-yl)-N-(4-(2-(7-(trifluoromethyl)-1H-benzo[d]imidazol-2-yl)-5,6-dihydro-4H-benzo[b]thieno[2,3-d]azepine-6-carbonyl)phenyl)nicotinamide] | – | – | – | – | > 13400 | 100 | 100 | –

From US10160772B2, “5,6-dihydro-4H-benzo[b]thieno-[2,3-d]azepine derivatives” (PULMOCIDE LIMITED, priority 2014, dated 2018)
